Test results from paper PMC3278406 (PLoS ONE, 2012).

Assays:
Stx1B (Stx1 B-subunits) = Stx1B (Stx1 B-subunits) (Bacteriophage H30, UniProt P69178); format: binding, Escherichia coli O157:H7; conditions: read-out: Kd of Stx1B for glycan
Stx2B (Stx2 B-subunits) = Stx2B (Stx2 B-subunits) (Escherichia phage 933W, UniProt P09386); format: binding, Escherichia coli O157:H7
Stx2B (Stx2 B-subunits), sequence (P09386 20-89 limits assumed): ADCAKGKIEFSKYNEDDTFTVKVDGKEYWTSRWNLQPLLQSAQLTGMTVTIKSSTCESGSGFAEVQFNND

Stx1B (Stx1 B-subunits), sequence (P69178 21-89 limits assumed): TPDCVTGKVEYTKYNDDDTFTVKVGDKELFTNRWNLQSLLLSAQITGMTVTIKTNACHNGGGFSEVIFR

Galα1-4Galβ1-4Glc [Pk]
Kd (Stx1B (Stx1 B-subunits)): 4 ± 0.3 mM | binding of Stx2B to glycan (Stx2B (Stx2 B-subunits)): no binding | Kd (Stx2B (Stx2 B-subunits); read-out: Kd of Stx2B for glycan): > 12 mM
